Values quoted from earlier work in patent US20240277629A1, “USE OF THYROID HORMONE T4 IN A HIGH VERSATILITY TREATMENT IN PATIENTS TAKING PROTON PUMP INHIBITORS” (ALTERGON S.A., priority 2021, published 2024).

Conditions: patients under therapy with PPIs (Centanni et al. 2006)

Q: With N[C@@H](Cc1cc(I)c(Oc2cc(I)c(O)c(I)c2)c(I)c1)C(=O)O [T4, levothyroxine] as the molecule, how does the “Increase of daily dose of T4 needed to obtain the desired blood levels of thyroid hormone” value read?
A: 37%
